We go through nine compounds from patent publication US5641480A, “Hair care compositions comprising heteroatom containing alkyl aldonamide compounds” (Lever Brothers Company, Division of Conopco, Inc., priority 1994, dated 1997).

Where two headings read alike, the source gives them in different places.

Data set [1] can be described thus: Surface tension at the water/air interface (Example 91). It counts as physicochemical. The conditions noted are these: 60 °C. On the procedure: An important characteristic feature that surfactants have is the tendency for them to absorb at the water/air interface in an oriented manner, thereby altering the interfacial free energy of that surface. The surface free energy per unit area or surface tension (γ), is a measure of this work and may be considered as the minimum amount of work required to bring sufficient surfactant molecules to the surface.
The surface tension (γ) value of C8 /C10 oxypropyl D-gluconamide was determined and is set forth below: […]

Data set [2] in a line: Clarity of prototype shampoo compositions with sodium lauryl sulfate (Example 87). It counts as physicochemical. The conditions noted are these: room temperature, 6 months. The protocol:
The prototype shampoo composition is as follows:
The above formulations were prepared by admixing the above ingredients in listed order and heating the mixture to about 80° C. with rapid stirring. The mixture was then cooled to about 40° C., placed in a clear jar and stored at room temperature for 6 months.

Data set [3] can be described thus: Critical micelle concentration, Wilhelmy plate method (Example 90). It counts as physicochemical. On the procedure: The critical micelle concentration (CMC) is defined as the concentration at which a surfactant forms micelles in aqueous solution. Micellization is the preferred interfacial phenomena, since certain surfactant benefits such as detergency (the solubilization of soils), foaming, wetting or emulsification depend on the formation of these aggregates in solution.
The CMC value of C8 /C10 oxypropyl D-gluconamide was determined by plotting surface tension as a function of log(concentration) and extrapolating linear points to obtain an intersection point. The concentration at this point was taken as the CMC. The technique used was the Wilhelmy plate method and the instrument used was a Lauda Auto-Tensiometer. While wishing not to be bound to theory, it is believed that surfactants with low CMC values form micelles more readily at lower concentrations than those with high CMC values.

Data set [4] in a line: Effectiveness in reducing surface tension (Example 93). The conditions noted are these: 60 °C, estimated by extrapolation. It counts as physicochemical. The text has this:
As mentioned before, surface tension reduction depends on the replacement of water molecules at the interface by surfactant molecules, therefore the effectiveness of a surfactant in reducing interfacial surface tension should reflect the saturated concentration of surfactant at the interface relative to that in bulk liquid phase. During this process the surface tension of water steadily decreases as bulk phase surfactant concentration increases. This will continue until the concentration reaches the critical micelle concentration (CMC), above which the surface tension remains nearly unchanged and the interface is saturated with surfactant. The surface tension at the CMC is therefore very close to the minimum interfacial tension or maximum surface pressure that the system can achieve. The surface pressure at this point, IIcmc, is a suitable measure of the effectiveness of a surfactant in reducing surface tension and is given as:
.PI.cmc 20+2.3nRT(Γmax) log [CMC/C20 ]
n=1 which represents the number of ions whose surface concentration changes with the change in liquid phase suffactant concentration.
CMC/C20 =is the ratio of the critical micelle concentration to the bulk phase surfactant concentration necessary to reduce the surface tension of water by 20 dyn/cm.

For data set [5] the following is noted: Rosen, cited from earlier work.
The conditions of data set [6]: Rosen, cited from earlier work. The source holds these as a separate data set.
Data set [7] is described as follows: Area per molecule at the water/air interface (Example 95). In kind it is physicochemical. As to conditions: 60 °C, estimated by extrapolation. An excerpt: The area per molecule of a surfactant at the water/air interface provides information on the degree of packing and the orientation of the adsorbed surfactant molecule. While not wishing to be bound by theory, it is believed that surfactants that have small area per molecule values tend to pack more closely at the interface than those with large area per molecule values. From the surface excess concentration at surface saturation (Γmax), the area per molecule (am) of C8 /C10 oxypropyl D-gluconamide was determined and is given by:
am =1×10^16 /Nav Γmax

The conditions of data set [8]: Rosen, cited from earlier work. The source holds these as a separate data set.
Data set [9] can be described thus: Effectiveness of adsorption, surface excess concentration at surface saturation (Example 94). It counts as physicochemical. The conditions noted are these: 60 °C, estimated by extrapolation. The text has this: The surface excess concentration at surface saturation (Γmax) is defined as a measure of the effectiveness of surfactant adsorption at the water/air interface and represents the maximum value to which adsorption can be obtained. Effectiveness of adsorption is related to the interfacial area occupied by the surfactant molecule. The smaller the effective cross-sectional area of a surfactant at the interface, the greater its effectiveness of adsorption. The effectiveness of adsorption is an important factor in determining surfactant properties such as detergency, foaming, wetting or emulsification. While not wishing to be bound by theory, it is believed that surfactants that absorb effectively at the interface tend have tightly packed coherent interfacial films and often provide better surfactant benefits than those with loosely packed noncoherent films. The effectiveness of adsorption of C8 /C10 oxypropyl D-gluconamide was determined using the Gibbs equation given as: […]
ergs/cm^2 (which is equivalent to the slope of a plot of γ

The conditions of data set [10]: Rosen, cited from earlier work. The source holds these as a separate data set.
The nature of data set [11]: Efficiency in surface tension reduction, pC20 (Example 92). In kind it is physicochemical. The conditions noted are these: 60 °C, estimated by extrapolation. The text has this: Since surface tension reduction depends on the replacement of water molecules at the interface by surfactant molecules, the efficiency of a surfactant in reducing interfacial tension should reflect the concentration of surfactant at the interface relative to that in bulk liquid phase. A suitable measure of efficiency with which a surfactant performs this function can be described as pC20. This is defined as the negative logarithm of the bulk phase surfactant concentration necessary to reduce the surface tension of water by 20 dyn/cm and is given as:
pC20 =-log [C(-Δγ=20) ]=-log [C20]
C(-Δγ=20) =C20 is the bulk phase surfactant concentration necessary to reduce the surface tension of water by 20 dyn/cm.
In general, pC20 values are usually close to the minimum concentration needed to saturate the interface with surfactant molecules.

The nature of data set [12]: Foam stability and enhancement of prototype shampoo (sodium/ammonium lauryl sulfate), Ross-Miles Foam Height assay (Example 86). It counts as physicochemical. The conditions noted are these: 45° C., 4.0% additive in prototype shampoo. The protocol: The results were compared to identical compositions comprising petrochemitcally derived foam stabilizing agents, in particular, alkanolamides and alcohol ethoxylates. The prototype shampoo composition is as follows:
The compositions were prepared by admixing the ingredients in listed order with rapid stirring at 45°-50° C. Foam stability and enhancement were measured at 0.1% based on sodium and ammonium lauryl sulfate (0.16% total solids) at 45° C. and 0 or 120 parts per million (ppm) hardness calcium:magnesium ion 2:1.

A short description of data set [13]: Viscosity of prototype shampoo compositions of Example 86, Brookfield Digital Viscometer. In kind it is physicochemical. The conditions noted are these: 4.0% thickener, Example 86 shampoo, 22° C. The text has this:
The results are as follows:

Data set [14] can be described thus: Foam stability and enhancement of sodium dodecyl benzene sulfonate, Ross-Miles method (Example 85). In kind it is physicochemical. As to conditions: 30 minutes, 10:90 mole %, 35° C., pH 10. On the procedure: The triolein/calcium stearate mixture was dispersed to the above solutions using a high speed shear mixer at 60° C. and then cooled to 35° C. The triolein/calcium stearate mixture represents an extreme type of antifoam behavior found in sebum soil.
The foaming behavior of the above surfactants was determined by the Ross-Miles Foam Height Assay (Ross, J. and Miles, G. D. Am Soc. for Testing Material Method Dl173-63 Philadelphia, Pa. (1953); Oil & Soap (1958) 62:1260) and the cylinder shaking method.
In the Ross-Miles method, 200 mL of a surfactant solution contained in a pipette of specified dimensions with a 2.9-mm-i.d. orifice is allowed to fall 90 cm onto 50 mL of the same solution contained in a cylindrical vessel maintained at a given temperature by means of a water jacket. The height of the foam produced in the cylindrical vessel is read after 30 minutes has elapsed.
The foam stability and enhancement of the heteroatom containing alkyl aldonamides was further determined using a 10:90 mole percent solution of C8 /C10 oxypropyl D-gluconamide (C8 /C10 OPG): sodium dodecyl benzene sulfonate (C12 LAS) and compared to identical solutions of dodecyl D-gluconamide (C12 Gluc): sodium dodecyl benzene sulfonate in the presence and absence of the triolein/calcium stearate antifoam.

Turning to `O` [Water], in [1], the “γ (surface tension)” value was found to be 60.2 dyn/cm.
As for `CCCCCCCCCCCCNC(=O)[C@H](O)[C@@H](O)[C@H](O)[C@H](O)CO` [C12 D-Gluconamide, dodecyl D-gluconamide], the “Appearance (Time)” value is “Precipitate (2 days)” in [2] (3.0% thickener in […] sodium lauryl sulfate shampoo) and “Precipitate (1 hour)” in [2] (5.0% thickener in […] sodium lauryl sulfate shampoo). Further, the CMC result in data set [3] (60 °C) is “None”. In addition, the water solubility result in data set [3] (60 °C table entry / discussion) was “insoluble in water and can not form micelles”.
Turning to `CCCCCCCCCCCCOCCOCCOCCOCCOCCOCCOCCO` [Dodecylhepta(oxyethylene) Ether], the “.PI.cmc (surface pressure)” value in [4] was 36.8 dyn/cm; in data set [5] (25 °C), 38.3 dyn/cm; in data set [5] (40 °C), 38.5 dyn/cm. Moreover, the results for the CMC/C20 in data set [5] (25 °C) and in [5] (40 °C) were 14.9 and 13.9, respectively. In addition, the “Γmax (surface excess concentration at surface saturation)” value (from here on “Γmax”) in [6] (25 °C) is reported as 2.90 × 10^-10 mole/cm^2; in data set [6] (40 °C), 2.77 × 10^-10 mole/cm^2; in [9], 2.71 × 10^-10 mole/cm^2. For the same compound, the “am (area per molecule)” value in data set [7] is on record as 61.0 Å^2; in [8] (25 °C) it was 57.3 Å^2; in data set [8] (40 °C) it was 59.9 Å^2. The pC20 in data set [10] (25 °C) is listed as 5.26; in [10] (40 °C) it was 5.28; in data set [11] it was 5.41.
As to “cocoamide monoethanolamine [Cocoamide MEA]”, in [12] (0 ppm hardness), the “Final FH after 60 Min.” value is given as 70 mm and the “Initial FH” value was 178 mm. Also, in data set [12] (120 ppm hardness), the “Final FH after 60 Min.” value came out at 53 mm and the “Initial FH” value is recorded as 148 mm. Further, the Viscosity in data set [13] amounted to 1720 Centipoise.
Turning to `CCCCCCCCCCCC(=O)N(CCO)CCO` [Lauramide DEA, lauramide diethanolamine], in [12] (0 ppm hardness), the “Final FH after 60 Min.” value is recorded as 151 mm and the “Initial FH” value is listed as 190 mm. In addition, in data set [12] (120 ppm hardness), the “Final FH after 60 Min.” value turned out to be 126 mm and the “Initial FH” value came to 159 mm. In [13], this compound returned a Viscosity of 2376 Centipoise.
`CCCCCCCCCCCCOCCOCCOCCOCCOCCOCCOCCOCCO` [Dodecylocta(oxyethylene) Ether]: the entries for the “.PI.cmc (surface pressure)” value in data set [4], in data set [5] (25 °C) and in data set [5] (40 °C) were 36.3 dyn/cm, 37.2 dyn/cm and 37.3 dyn/cm, respectively. Also, the figures for the CMC/C20 in [5] (25 °C) and in data set [5] (40 °C) were 17.3 and 15.4, respectively. Moreover, the “Γmax” value in data set [6] (25 °C) is 2.52 × 10^-10 mole/cm^2; in data set [6] (40 °C) it was 2.46 × 10^-10 mole/cm^2; in data set [9], 2.40 × 10^-10 mole/cm^2. Moreover, the “am (area per molecule)” value in data set [7] is listed as 69.0 Å^2; in [8] (25 °C), 66.0 Å^2; in [8] (40 °C) it was 67.4 Å^2. Also, the figures for the pC20 in data set [10] (25 °C), in data set [10] (40 °C) and in data set [11] were 5.20, 5.22 and 5.39, respectively.
With “sodium dodecyl benzene sulfonate [C12 LAS]”, the “Foam Height, No Antifoam” value in data set [14] is on record as 131 mm. In addition, the “Foam Height, With Antifoam” value in data set [14] (triolein/calcium stearate 1 g/L) amounted to 61 mm.
Regarding `CCCCCCCCCCCCOCCOCCOCCOCCO` [Dodecyltetra(oxyethylene) Ether], the “.PI.cmc (surface pressure)” value is given as 40.7 dyn/cm in data set [4], 43.4 dyn/cm in [5] (25 °C) and 42.0 dyn/cm in data set [5] (40 °C). Further, the CMC/C20 is 13.7 in [5] (25 °C) and 11.8 in [5] (40 °C). For the same compound, the “Γmax” value in data set [6] (25 °C) is listed as 3.63 × 10^-10 mole/cm^2; in data set [6] (40 °C), 3.41 × 10^-10 mole/cm^2; in data set [9], 3.01 × 10^-10 mole/cm^2. Further, the entries for the “am (area per molecule)” value in data set [7], in data set [8] (25 °C) and in data set [8] (40 °C) were 53.3 Å^2, 45.7 Å^2 and 48.7 Å^2, respectively. For the same compound, in data set [10] (25 °C), the pC20 is listed as 5.34.
In the case of `CCCCCCCCCCCCOCCOCCOCCOCCOCCO` [Dodecylpenta(oxyethylene) Ether], the “.PI.cmc (surface pressure)” value in [4] is reported as 40.7 dyn/cm; in data set [5] (25 °C), 41.5 dyn/cm; in data set [5] (40 °C) it was 41.2 dyn/cm. For the same compound, the CMC/C20 in data set [5] (25 °C) is reported as 15.0. The “Γmax” value is 3.31 × 10^-10 mole/cm^2 in [6] (25 °C), 3.28 × 10^-10 mole/cm^2 in data set [6] (40 °C) and 3.16 × 10^-10 mole/cm^2 in [9]. Besides, the entries for the “am (area per molecule)” value in data set [7], in data set [8] (25 °C) and in data set [8] (40 °C) were 52.3 Å^2, 50.1 Å^2 and 50.6 Å^2, respectively. In addition, in data set [10] (25 °C), the pC20 was 5.37.
